# Measured values published in the supplement of paper PMC13380429.
# How the values were obtained:
# Details in all cases: 72 h
# [1] = tested on: Caco-2; assay: cell viability relative to DMSO; higher = less toxic
# [2] = tested on: Calu-3; assay: as above
# [3] = tested on: HepG2; assay: as above
# [4] = tested on: U2OS; assay: as above
# [5] = tested on: Vero E6; assay: as above
# [6] = tested on: Calu-3; assay: relative viability EC50 (midpoint between 100% and the lowest measured viability); higher = less toxic
# [7] = tested on: HepG2; assay: as above
# [8] = tested on: U2OS; assay: as above
# [9] = tested on: Vero E6; assay: as above
# [10] = tested on: Caco-2; assay: drug sensitivity score (DSS) for viability; higher = more toxic; extreme values may be limits of the assay
# [11] = tested on: Calu-3; assay: as above
# [12] = tested on: HepG2; assay: as above
# [13] = tested on: U2OS; assay: as above
# [14] = tested on: Vero E6; assay: as above
# [15] = tested on: Caco-2; assay: relative viability EC50 (midpoint between 100% and the lowest measured viability); higher = less toxic
Structure (SMILES),cell viability ([1]; 1 nM),cell viability ([1]; 10 nM),cell viability ([1]; 100 nM),cell viability ([1]; 1000 nM),cell viability ([1]; 10000 nM),cell viability ([2]; 1 nM),cell viability ([2]; 10 nM),cell viability ([2]; 100 nM),cell viability ([2]; 1000 nM),cell viability ([2]; 10000 nM),cell viability ([3]; 1 nM),cell viability ([3]; 10 nM),cell viability ([3]; 100 nM),cell viability ([3]; 1000 nM),cell viability ([3]; 10000 nM),cell viability ([4]; 1 nM),cell viability ([4]; 10 nM),cell viability ([4]; 100 nM),cell viability ([4]; 1000 nM),cell viability ([4]; 10000 nM),cell viability ([5]; 1 nM),cell viability ([5]; 10 nM),cell viability ([5]; 100 nM),cell viability ([5]; 1000 nM),cell viability ([5]; 10000 nM),relative viability EC50 [6],relative viability EC50 [7],relative viability EC50 [8],relative viability EC50 [9],drug sensitivity score [10],drug sensitivity score [11],drug sensitivity score [12],drug sensitivity score [13],drug sensitivity score [14],relative viability EC50 [15]
Nc1nc2c(cnn2CCc2ccccc2)c2nc(-c3ccco3)nn12,96.7%,104%,93.5%,78.3%,67.5%,88.2%,100%,95.7%,113%,90.7%,97.7%,101%,90.9%,25.5%,12.7%,98%,99.8%,92.7%,98.6%,100%,107%,99.8%,98.2%,99.6%,96.1%,> 10 µM,0.354 µM,> 10 µM,> 10 µM,4.1,0,14.9,0,0,–
O=C1NC(=O)c2cc(Nc3ccc(F)cc3)c(Nc3ccc(F)cc3)cc21,93.9%,88.6%,95.2%,93.3%,70.2%,106%,106%,94.7%,106%,77.8%,101%,93.9%,101%,91.8%,49.7%,95%,100%,97.2%,101%,87.9%,96.9%,97.1%,99.9%,93.5%,103%,> 10 µM,1.91 µM,> 10 µM,> 10 µM,2.2,0.5,4,0,0,–
c1ccc(N2CCN(CCCOc3ccc4c(c3)OCO4)CC2)cc1 [BP-554],107%,102%,101%,105%,98.7%,101%,107%,99.5%,103%,110%,107%,93.1%,95.3%,102%,103%,–,–,–,–,–,94.5%,94.6%,94.7%,96.2%,96%,> 10 µM,> 10 µM,–,> 10 µM,0,0,0,–,0,> 10 µM
CC(=O)Oc1ccccc1C(=O)Oc1cccc(CO[N+](=O)[O-])c1 [NO-ASA],–,–,–,–,–,96.3%,101%,98.9%,103%,107%,95.4%,104%,100%,88.9%,79.9%,98%,98.5%,99.4%,101%,93.1%,102%,108%,101%,89.7%,105%,> 10 µM,> 10 µM,> 10 µM,> 10 µM,–,0,1.7,0,0,–
CC(C)c1nc(CN(C)C(=O)N[C@H](C(=O)N[C@@H](Cc2ccccc2)C[C@H](O)[C@H](Cc2ccccc2)NC(=O)OCc2cncs2)C(C)C)cs1 [Ritonavir],99.9%,90.5%,94.4%,96.9%,77.6%,97.4%,89.1%,94.9%,103%,86.3%,103%,93.9%,97.2%,96.8%,93.8%,93.7%,97.8%,100%,99.2%,96.4%,–,–,–,–,–,> 10 µM,> 10 µM,> 10 µM,> 10 µM,1.2,0.1,0,0,0,> 10 µM
CCOc1ccc(NC(=S)N2CCC(C(O)(c3ccccc3)c3ccccc3)CC2)cc1 [SF-11],–,–,–,–,–,100%,107%,96.7%,104%,96.5%,99.5%,100%,103%,109%,91.7%,101%,96.6%,98.4%,98.2%,100%,101%,99.9%,98.4%,99.8%,102%,> 10 µM,> 10 µM,> 10 µM,> 10 µM,–,0,0,0,0,–
